Data set [1] relates to convulsions induced by bicuculline in mice. Nature of the data set: Antagonism to convulsions induced by bicuculline in mice (anti-bicuculline activity). It counts as in vivo. The conditions noted are these: Mus musculus, ip, intraperitoneal, dose which protects 50% of the animals against the effect of bicuculline, read-out: Anti-bicuculline activity, AD 50 (intraperitoneal administration). How it is done: II. GABA-animetic activity of the compounds (I)
The experimental method of Curtis, D. R., et al., Brain Res., 1971, 33, 57 and Perez de la Mora, N., Biochem. Pharmacol., 1973, 22, 2,635, was used.
The 50% active doses (AD 50), namely the doses which protect 50% of the animals against the effect of bicuculline, were evaluated for the substances studied.

Data set [2] can be described thus: Acute toxicity in mice (LD 50, intraperitoneal). The note with it: mouse, in vivo, ip, CD1 mice, deaths recorded 48 hours after administration, determined graphically. How it is done: I. Acute toxicity in mice
The compounds of the invention and the reference substances were administered intraperitoneally to CD1 mice. The 50% lethal dose (LD 50) was determined graphically. The number of dead animals 48 hours after intraperitoneal administration was recorded.

The conditions of data set [3]: oral or parenteral administration; cited from earlier work.
Data set [4] relates to epilepsy. The conditions noted are these: cited from earlier work.

Bounds are passed on as bounds.

Usually LD50 stands for the dose at which mortality reaches 50%. A low value points to a more toxic substance. As to `NC(=O)CCCN=C(c1ccc(Cl)cc1)c1cc(F)ccc1O` [76,002, 4-[(4-Chlorophenyl)-5-fluoro-2-hydroxy-benzylidenyl]-amino-butyramide], in data set [1], the ED50 turned out to be 65 mg/kg. The same compound yielded an LD50 at 48 h in data set [2] of 900 mg/kg.

As to `O=C(O)CCCCN=C(c1ccccc1)c1cc(F)ccc1O` [SL 75,106], the ED50 in data set [1] was determined as 120 mg/kg. Besides, the 50% lethal dose (LD50) at 48 h in data set [2] was found to be 600 mg/kg.

`O=C(O)CCCCCCCCCCN=C(c1ccccc1)c1ccccc1O` [75,075, Sodium 11-N-(α-phenyl-2-hydroxy-benzylidenyl)-amino-undecamoate]: the ED50 in data set [1] came to 100 mg/kg. This compound also had an LD50 at 48 h in data set [2] of 210 mg/kg.

For `Cc1ccc(O)c(C(=NCCCC(=O)O)c2ccccc2Cl)c1` [75,136], the ED50 in data set [1] was 110 mg/kg. For the same compound, the LD50 at 48 h in data set [2] is 350 mg/kg.

Consider `NC(=O)CCCN=C(c1ccc(F)cc1)c1cc(F)ccc1O` [75,166], for which the ED50 in data set [1] is 180 mg/kg. The LD50 at 48 h in data set [2] is above 2000 mg/kg.

For `NC(=O)CN=C(c1ccccc1)c1cc(F)ccc1O` [75,083], the ED50 in data set [1] worked out at 175 mg/kg. In data set [2], this compound displayed a 50% lethal dose (LD50) at 48 h of 650 mg/kg.

In the case of `O=C(O)CCCN=C(c1ccccc1O)c1ccccc1Cl` [75,078], in data set [1], the ED50 stood at 110 mg/kg. In data set [2], this compound returned an LD50 at 48 h of 350 mg/kg.

With `O=C(O)CCCCCN=C(c1ccccc1)c1cc(F)ccc1O` [75,059], the ED50 in data set [1] worked out at 200 mg/kg. In data set [2], this compound gave a 50% lethal dose (LD50) at 48 h of 800 mg/kg.

On to `NC(=O)CCCN=C(c1ccccc1)c1cc(F)ccc1O` [75,167], for which the ED50 in data set [1] is 100 mg/kg. The 50% lethal dose (LD50) at 48 h in data set [2] is above 2000 mg/kg.

In the case of `O=C(O)CCCN=C(c1ccc(F)cc1)c1cc(F)ccc1O` [75,045, Sodium 4-N-[α-(4-fluorophenyl)-5-fluoro-2-hydroxy-benzylidenyl]-amino-butyrate], in data set [1], the ED50 is 125 mg/kg. This compound also returned an LD50 at 48 h in data set [2] of 650 mg/kg.

As to `NCCCC(=O)O` [GABA, γ-Aminobutyric acid], the “crossing of the blood-brain barrier (in words)” value in data set [3] is given as “does not easily cross the blood-brain barrier”. In addition, the ED50 in data set [1] was above 4000 mg/kg. Further, the “side-effects (in words)” value in data set [4] (administration of GABA) was “substantial sideeffects (hypotension, bradycardia, and sedation)”. In addition, the “use in epilepsy (in words)” value in data set [4] (some cases of epilepsy, very large quantities needed) is recorded as “used with success in some cases of epilepsy”. This compound also gave a median lethal dose (LD50) at 48 h in data set [2] above 4000 mg/kg.

For `COc1ccc(C(=NCCCC(=O)O)c2ccccc2)c(O)c1` [75,107], in data set [1], the ED50 worked out at 450 mg/kg. Moreover, the median lethal dose (LD50) at 48 h in data set [2] was determined as 950 mg/kg.

On to `NC(=O)CN1CCCC1=O` [PIRACETAM, reference compound], for which the ED50 in data set [1] turned out to be 500 mg/kg. The same compound returned a 50% lethal dose (LD50) at 48 h in data set [2] above 4000 mg/kg.

For `O=C(CCCN=C(c1ccccc1)c1cc(F)ccc1O)NC1CCCC1` [76,011], in data set [1], the ED50 is 365 mg/kg. The compound further displayed a median lethal dose (LD50) at 48 h in data set [2] above 2000 mg/kg.

Consider `O=C(O)CCCN=C(c1cc(F)ccc1O)c1ccccc1F` [75,017], for which the ED50 in data set [1] was 175 mg/kg. Moreover, the LD50 at 48 h in data set [2] was 525 mg/kg.

With `CCOC(=O)CCCNC(=O)CCCN=C(c1ccccc1)c1cc(F)ccc1O` [75,168], in data set [1], the ED50 turned out to be 500 mg/kg. The compound also had a median lethal dose (LD50) at 48 h in data set [2] of 975 mg/kg.

Take `O=C(CCCN=C(c1ccccc1)c1cc(F)ccc1O)Nc1ccccc1` [76,012]: the ED50 in data set [1] is 500 mg/kg. In addition, in data set [2], the LD50 at 48 h was above 2000 mg/kg.

`O=C(CCCN=C(c1ccccc1)c1cc(F)ccc1O)NC1CC1` [76,010]: in data set [1], the ED50 was 250 mg/kg. Besides, in data set [2], the LD50 at 48 h is 1250 mg/kg.

For the compound `O=C(O)CCN=C(c1ccccc1)c1ccccc1O` [75,019], the ED50 in data set [1] is 425 mg/kg. Also, in data set [2], the LD50 at 48 h stood at 830 mg/kg.

Consider `O=C(O)CCCN=C(c1ccccc1O)c1ccccc1F` [75,046], for which, in data set [1], the ED50 came out at 225 mg/kg. The same compound came in with an LD50 at 48 h in data set [2] of 675 mg/kg.

In the case of `O=C(O)CCCCN=C(c1ccccc1)c1ccccc1O` [75,006], the ED50 in data set [1] amounted to 250 mg/kg. The compound also displayed an LD50 at 48 h in data set [2] of 700 mg/kg.

With `Cc1ccc(O)c(C(=NCCCC(=O)O)c2ccccc2F)c1` [75,053], the ED50 in data set [1] worked out at 125 mg/kg. In data set [2], this compound displayed a median lethal dose (LD50) at 48 h of 600 mg/kg.

Consider `NC(=O)CCCN=C(c1cc(F)ccc1O)c1ccccc1Cl` [76,086], for which the ED50 in data set [1] was 50 mg/kg. The compound also yielded an LD50 at 48 h in data set [2] of 235 mg/kg.

As for `COc1ccc(C(=NCCCC(=O)O)c2ccc(Cl)cc2)c(O)c1` [75,118], in data set [1], the ED50 is 225 mg/kg. Besides, in data set [2], the LD50 at 48 h is 525 mg/kg.

Take `Cc1ccccc1C(=NCCCC(=O)O)c1cc(F)ccc1O` [75,029]: the ED50 in data set [1] was found to be 250 mg/kg. This compound displayed an LD50 at 48 h in data set [2] of 475 mg/kg.

With `NC(=O)CN=C(c1ccccc1)c1ccccc1O` [75,037], the ED50 in data set [1] was determined as 20 mg/kg. Further, the 50% lethal dose (LD50) at 48 h in data set [2] is 1350 mg/kg.

Consider `CCCCN(CCCC)C(=O)CCCN=C(c1ccccc1)c1cc(F)ccc1O` [76,023], for which the ED50 in data set [1] is 300 mg/kg. This compound returned a median lethal dose (LD50) at 48 h in data set [2] of 1700 mg/kg.

`O=C(O)CCCN=C(c1ccccc1)c1ccccc1O` [SL 74,227]: the ED50 in data set [1] was 500 mg/kg. In data set [2], this compound gave an LD50 at 48 h of 975 mg/kg.

For the compound `O=C(O)CCCN=C(c1ccccc1)c1cc(Cl)ccc1O` [75,005], the ED50 in data set [1] was determined as 120 mg/kg. The median lethal dose (LD50) at 48 h in data set [2] worked out at 350 mg/kg.

Regarding `O=C(O)CCCN=C(c1ccc(Cl)cc1)c1cc(F)ccc1O` [75,102], the ED50 in data set [1] was 65 mg/kg. The compound also returned a 50% lethal dose (LD50) at 48 h in data set [2] of 500 mg/kg.

With `CN(C)C(=O)CCCN=C(c1ccccc1)c1cc(F)ccc1O` [76,022], in data set [1], the ED50 amounted to 350 mg/kg. In data set [2], the 50% lethal dose (LD50) at 48 h is 1400 mg/kg.

Consider `O=C(O)CCCN=C(c1cccc(F)c1)c1cc(F)ccc1O` [75,044, Sodium 4-N-[α-(3-fluorophenyl)-5-fluoro-2-hydroxy-benzylidenyl]-amino-butyrate], for which the ED50 in data set [1] was 250 mg/kg. Also, the LD50 at 48 h in data set [2] was 850 mg/kg.

Take `O=C(O)CCCCCCCN=C(c1ccccc1)c1ccccc1O` [75,100]: the ED50 in data set [1] was 300 mg/kg. In addition, the LD50 at 48 h in data set [2] came out at 600 mg/kg.

As to `NC(=O)CCCN=C(c1cccc(Cl)c1)c1cc(F)ccc1O` [76,091], in data set [1], the ED50 turned out to be 300 mg/kg. The compound also had an LD50 at 48 h in data set [2] of 600 mg/kg.

As to `O=C(O)CCCCCCCCCCN=C(c1ccccc1)c1cc(F)ccc1O` [75,054], in data set [1], the ED50 amounted to 130 mg/kg. The same compound yielded a 50% lethal dose (LD50) at 48 h in data set [2] of 300 mg/kg.

As to `O=C(CCCN=C(c1ccccc1)c1cc(F)ccc1O)NCc1ccccc1` [76,013], the ED50 in data set [1] came to 200 mg/kg. In addition, the LD50 at 48 h in data set [2] is above 2000 mg/kg.

Consider `O=C(O)CCCN=C(c1ccccc1)c1cc(F)ccc1O` [75,010, Sodium 4-N-(α-phenyl-5-fluoro-2-hydroxy-benzylidenyl)-amino-butyrate], for which, in data set [1], the ED50 was determined as 125 mg/kg. The compound also yielded a median lethal dose (LD50) at 48 h in data set [2] of 600 mg/kg.

For the compound `O=C(CCCN=C(c1ccccc1)c1cc(F)ccc1O)NC1CCC1` [76,030], the ED50 in data set [1] is 200 mg/kg. In data set [2], this compound returned an LD50 at 48 h above 2000 mg/kg.

Take `CC(C)NC(=O)CCCN=C(c1ccccc1)c1cc(F)ccc1O` [76,031]: in data set [1], the ED50 turned out to be 500 mg/kg. In addition, the LD50 at 48 h in data set [2] is above 2000 mg/kg.

Take `O=C(O)CCCN=C(c1cc(F)ccc1O)c1ccccc1Cl` [75,027]: the ED50 in data set [1] came out at 125 mg/kg. Moreover, the LD50 at 48 h in data set [2] came to 375 mg/kg.

Consider `CCCC(CCN=C(c1ccccc1)c1cc(F)ccc1O)C(=O)O` (stereo not drawn) [76,085], for which the ED50 in data set [1] was found to be 170 mg/kg. The same compound yielded a 50% lethal dose (LD50) at 48 h in data set [2] of 340 mg/kg.

Take `O=C(O)CCCCCN=C(c1ccccc1)c1ccccc1O` [75,074]: the ED50 in data set [1] came to 300 mg/kg. The same compound gave an LD50 at 48 h in data set [2] of 750 mg/kg.
